What is called EC50 is the concentration needed to bring the measured effect to its halfway point.

The text below walks through data of US11339120B2, “Phenyl derivatives as cannabinoid receptor 2 agonists” (priority 2015, dated 2022).

Molecules are shown by their SMILES.

For one assay, the target named is T1, human CB2 receptors (Homo sapiens, UniProt P34972).
T1 construct: expressed in transfected cells; host or cells: CHO cells
Briefly: functional cAMP assay, CHO cells expressing human CB2. The class given is cell-based. The conditions noted are these: functional cAMP assay, CHO cells expressing human CB2; read-out: Human CB2 EC50. The procedure, abridged:
(§1)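 Compound exposure lasted 30 min at 30 °C in IBMX (1 mM)-containing Krebs Ringer bicarbonate buffer, applied to human CB1- or CB2-expressing CHO cells. Lysates were read by time-resolved FRET cAMP detection, converted via cAMP standard curve (10 μM–0.13 nM), and EC50 values calculated.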
In general terms: Cyclic AMP is a second messenger, typically raised through Gs and lowered through Gi signalling.

In the next assay the target is T2, human CB1 receptors (Homo sapiens, UniProt P21554).
T2 construct: expressed in transfected cells; host or cells: CHO cells
T2 sequence (P21554 whole entry): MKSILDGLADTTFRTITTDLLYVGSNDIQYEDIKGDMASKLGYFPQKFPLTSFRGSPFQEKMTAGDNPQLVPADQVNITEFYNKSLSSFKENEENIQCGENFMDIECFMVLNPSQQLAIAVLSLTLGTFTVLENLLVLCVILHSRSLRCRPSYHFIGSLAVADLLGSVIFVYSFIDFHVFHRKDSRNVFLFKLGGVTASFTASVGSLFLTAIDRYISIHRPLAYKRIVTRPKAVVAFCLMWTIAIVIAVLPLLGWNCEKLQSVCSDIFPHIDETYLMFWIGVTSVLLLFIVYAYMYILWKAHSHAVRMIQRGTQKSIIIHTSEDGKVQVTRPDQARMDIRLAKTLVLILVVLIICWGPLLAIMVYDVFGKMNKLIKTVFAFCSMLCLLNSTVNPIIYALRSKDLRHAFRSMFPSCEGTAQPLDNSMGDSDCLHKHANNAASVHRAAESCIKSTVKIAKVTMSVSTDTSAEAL
Briefly: functional cAMP assay, CHO cells expressing human CB1. It counts as cell-based. In outline:
as §1

T1 sequence (P34972 whole entry): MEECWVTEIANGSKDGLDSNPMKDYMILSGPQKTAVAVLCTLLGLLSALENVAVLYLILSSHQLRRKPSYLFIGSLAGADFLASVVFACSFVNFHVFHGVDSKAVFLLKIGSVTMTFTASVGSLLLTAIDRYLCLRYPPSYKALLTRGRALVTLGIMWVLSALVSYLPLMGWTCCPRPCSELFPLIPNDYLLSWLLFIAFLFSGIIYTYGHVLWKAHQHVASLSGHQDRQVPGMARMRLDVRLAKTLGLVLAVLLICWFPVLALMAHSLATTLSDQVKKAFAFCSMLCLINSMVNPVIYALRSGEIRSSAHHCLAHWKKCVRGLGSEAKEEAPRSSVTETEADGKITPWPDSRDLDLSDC

On to `Cc1nc(C(NC(=O)c2ccc(C3CC3)c(OC(C)C)c2)C2(C)COC2)no1` (stereo not shown) [Example 68, 4-Cyclopropyl-N-[(5-methyl-1,2,4-oxadiazol-3-yl)(3-methyloxetan-3-yl)methyl]-3-[(propan-2-yl)oxy]benzamide], for which the EC50 is 0.264 µM at human CB2 receptors and greater than 10 µM on human CB1 receptors.
On the same counts, the results for `CC1(C(CC(N)=O)NC(=O)c2ccc(C3CC3)c(OCC(F)(F)F)c2)COC1` (stereo not shown) [Example 69, N-[3-Amino-1-(3-methyloxetan-3-yl)-3-oxopropyl]-4-cyclopropyl-3-(2,2,2-trifluoroethoxy)benzamide] are 1.18 µM and greater than 10 µM.
